Measured values from ChEMBL document CHEMBL5614368, “Fyn, Blk, and Lyn kinase inhibitors: A mini-review on medicinal attributes, research progress, and future insights” (Bioorg Med Chem Lett, 2024).

Tests used:
[1] = target: Tyrosine-protein kinase Lyn (Homo sapiens) (UniProt P07948); experiment: Inhibition of LYN (unknown origin) at 0.1 uM relative to control
[2] = target: Tyrosine-protein kinase Fyn (Homo sapiens, UniProt P06241); experiment: Inhibition of full-length human recombinant Fyn using Poly(Glu4, Tyr1) as substrate measured for 60 mins by Kinase-Glo reagent based analysis
Tyrosine-protein kinase Fyn, sequence (P06241 whole entry): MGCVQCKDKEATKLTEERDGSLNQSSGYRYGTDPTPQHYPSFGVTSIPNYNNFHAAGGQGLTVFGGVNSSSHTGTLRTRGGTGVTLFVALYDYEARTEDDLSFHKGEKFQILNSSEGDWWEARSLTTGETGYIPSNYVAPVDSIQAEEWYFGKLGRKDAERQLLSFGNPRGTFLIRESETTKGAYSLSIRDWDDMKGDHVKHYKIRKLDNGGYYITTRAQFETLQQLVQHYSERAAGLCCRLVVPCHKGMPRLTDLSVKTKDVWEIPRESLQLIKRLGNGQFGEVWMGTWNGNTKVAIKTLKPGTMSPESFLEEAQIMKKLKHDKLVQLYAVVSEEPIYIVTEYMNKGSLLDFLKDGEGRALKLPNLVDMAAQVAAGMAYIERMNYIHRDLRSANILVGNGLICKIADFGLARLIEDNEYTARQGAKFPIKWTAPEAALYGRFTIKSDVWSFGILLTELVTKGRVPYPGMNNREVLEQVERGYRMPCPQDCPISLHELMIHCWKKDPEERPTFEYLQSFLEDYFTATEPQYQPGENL

[3] = target: Proto-oncogene tyrosine-protein kinase Src (Homo sapiens, UniProt P12931); experiment: Binding affinity to SRC (unknown origin) assessed as inhibition constant
Proto-oncogene tyrosine-protein kinase Src, sequence (P12931 2-536 limits assumed): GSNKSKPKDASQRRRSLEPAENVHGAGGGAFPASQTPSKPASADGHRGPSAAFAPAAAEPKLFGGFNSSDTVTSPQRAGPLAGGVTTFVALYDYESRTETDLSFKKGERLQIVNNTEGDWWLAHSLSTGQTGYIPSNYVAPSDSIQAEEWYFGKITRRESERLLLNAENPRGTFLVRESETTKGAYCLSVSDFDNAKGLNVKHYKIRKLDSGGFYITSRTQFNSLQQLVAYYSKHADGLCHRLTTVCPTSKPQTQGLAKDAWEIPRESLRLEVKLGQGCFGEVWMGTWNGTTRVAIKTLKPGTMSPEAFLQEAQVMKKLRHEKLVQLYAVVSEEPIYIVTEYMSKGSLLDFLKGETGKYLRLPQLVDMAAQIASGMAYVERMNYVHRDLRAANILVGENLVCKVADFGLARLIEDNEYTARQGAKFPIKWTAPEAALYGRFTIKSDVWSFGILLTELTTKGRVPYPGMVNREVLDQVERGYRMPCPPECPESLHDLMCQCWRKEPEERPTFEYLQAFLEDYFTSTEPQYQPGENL

Tyrosine-protein kinase Lyn (Homo sapiens), sequence (P07948 2-512 limits assumed): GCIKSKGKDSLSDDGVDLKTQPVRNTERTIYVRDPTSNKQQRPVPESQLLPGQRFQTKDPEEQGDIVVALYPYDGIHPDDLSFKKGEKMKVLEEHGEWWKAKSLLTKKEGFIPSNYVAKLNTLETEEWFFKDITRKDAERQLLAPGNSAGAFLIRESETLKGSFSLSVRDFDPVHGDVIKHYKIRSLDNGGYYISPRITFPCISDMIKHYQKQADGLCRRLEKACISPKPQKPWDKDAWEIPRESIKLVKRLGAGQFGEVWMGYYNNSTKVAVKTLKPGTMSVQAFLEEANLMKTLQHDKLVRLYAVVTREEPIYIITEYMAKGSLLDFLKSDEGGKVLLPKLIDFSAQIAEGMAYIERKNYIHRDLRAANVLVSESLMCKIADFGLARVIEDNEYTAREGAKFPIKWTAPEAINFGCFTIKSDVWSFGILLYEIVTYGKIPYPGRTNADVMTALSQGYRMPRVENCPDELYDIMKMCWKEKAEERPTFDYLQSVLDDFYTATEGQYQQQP

IC50 [2]	Structure (SMILES)	other results
–	CSc1ccc(C(=O)NCc2cc3c(=O)[nH]c(N)nc3[nH]2)cc1	inhibition [1]: 42%
760 nM	Cc1nnc(NC2CCCCC2)nc1O	–
–	Oc1ccc(F)c(Nc2nc(SCCN3CCOCC3)nc3c2cnn3CC(Cl)c2ccccc2)c1 (centres undefined)	Ki [3]: 170 nM
4800 nM	Cc1n[nH]c(Nc2ccc3c(c2)OCO3)nc1=O	–
